In patent US20040267001A1, “Genes encoding baeyer-villiger monooxygenases” (priority 2001, published 2004):

B1: ORF 8: Rhodococcus erythropolis AN12 ORF 8 chnB monooxygenase, protein SEQ ID NO:22, expressed in E. coli (protein)
chain: MSTEGKYALIGAGPSGLAGARNLDRAGIAFDGFESHDDVGGLWDIDNPHSTVYESAHLISSKGTTAFAEFPMADSVADYPSHIELAEYFRDYADTHDLRRHFAFGTTVIDVLPVDSLWQVTTRSRSGETSVARYRGVIIANGTLSKPNIPTFRGDFTGTLMHTSEYRSAEIFRGKRVLVIGAGNSGCDIAVDAVHQAECVDLSVRRGYYFVPKYLFGRPSDTLNQGKPLPPWIKQRVDTLLLKQFTGDPVRFGFPAPDYKIYESHPVVNSLILHHIGHGDVHVRADVDRFEGKTVRFVDGSSADYDLVLCATGYHLDYPFIAREDLDWSGAAPDLFLNVASRRHDNLFVLGMVEASGLGWQGRYQQAELVAKLITARTEAPAAAREFSAAAAGPPPDLSGGYKYLKLGRMAYYVNKDAYRSAIRRHIGLLDAALTKGGQ
modifications: Rhodococcus erythropolis AN12

Legend:
[1] = test system: Rhodococcus sp. phi1 chnB monooxygenase; test: chnB monooxygenase activity assay, NADPH oxidation at 340 nm, purified over-expressed enzyme; type: biochemical; conditions: 1.25 mM substrate, pH 7.5; ND = No Activity Detected
Description: (§1) Following amplification, the chnB gene fragments were cloned into pTrcHis-TOPO TA vectors with either an N-terminal tail or C-terminal tail, as provided by the vector sequence (N-terminal tail for Brevibacterium sp. HCU, Rhodococcus sp. phi1, Rhodococcus sp. phi2, and Arthrobacter sp. BP2 monooxygenases; C-terminal tail for Acinetobacter sp. SE19 and Acidovorax sp. CHX monooxygenases). These vectors were transformed into E. coli, with transformants grown in Luria-Bertani broth supplemented with ampicillin (100 ug/ml) and riboflavin (0.1 ug/ml) at 30° C. until the absorbance at 600 nm (A600) reached 0.5. When the A600 was reached, the temperature was shifted to 16° C.
(§2) The encoded monooxygenase sequences were expressed upon addition of IPTG to the culture media, 30 min after the temperature shift to 16° C. The cultures were grown further ovemight (14 hrs) and harvested by centrifugation in a cold centrifuge. The cells were treated with lysozyme (100 mg/ml) for 30 min on ice and sonicated. Following sonication, cell extracts were centrifuged and the supernatant was equilibrated with Ni-NTA resin (Qiagen, Valencia, Calif.) for 1 hr at 4° C. Protein bound resin was washed successively with increasing concentrations of imidazole buffer until the protein of interest was released from the resin. The purified protein was concentrated and the buffer exchanged to remove the imidazole. The protein concentration was adjusted to 1 ug/ml.
(§3) Compounds were selected on the basis of previous observations by van der Werf (J. Biochem. 347:693-701 (2000)) and Miyamoto et al. (Biochimica et Biophysica Acta 1251: 115-124 (1995)) and by searches for the ketone substructure.
(§4) All compounds were obtained from Sigma-Aldrich with only two exceptions. Levoglucosenone was obtained from Toronto Research Chemicals, Inc. and dimethyl-2-piperidone was prepared according to U.S. Pat. No. 6,077,955. For enzyme assays all compounds were dissolved to a concentration of 0.1 M in methanol, with the exceptions of norcamphor (dissolved in ethyl acetate), cyclododecanone, cycltridecanone and cyclopentadecanone (dissolved in propanol), and levoglucosenone (dissolved with acetone).
(§5) The monooxygenase activity of each over-expressed enzyme was assayed spectrophotometrically at 340 nm by monitoring the oxidation of NADPH. Assays were performed in individual quartz cuvettes, with a pathlength of 1 cm. […] An Ultrospec 4000 (Pharmacia Biotech, Cambridge, England) was used to read the absorbance of the samples over a two to ten minute time period and the SWIFT (Pharmacia Biotech) program was used to calculate the slope of the reduction in absorbance over time. For the Brevibactedum sp. […] Monooxygenase activity of each over-expressed enzyme is shown in Table 5, with respect to each ketone substrate. The specific activity values listed are given in umol/min/mg. The notation “ND” refers to “No Activity Detected”.

[2] = test system: Brevibacterium sp. HCU chnB2 monooxygenase; test: as above; type: biochemical; conditions: 1.25 mM substrate, pH 7.5; rates multiplied by a factor of 3.25 to adjust for decrease in activity due to storage; ND = No Activity Detected
Description: as §1, §2, §3, §4, §5

[3] = test system: Arthrobacter sp. BP2 chnB monooxygenase; test: as above; type: biochemical; conditions: 1.25 mM substrate, pH 7.5; ND = No Activity Detected
Description: as §1, §2, §3, §4, §5

[4] = test system: Brevibacterium sp. HCU chnB1 monooxygenase; test: as above; type: biochemical; conditions: 1.25 mM substrate, pH 7.5; ND = No Activity Detected
Description: as §1, §2, §3, §4, §5

[5] = test system: Rhodococcus sp. phi2 chnB monooxygenase; test: as above; type: biochemical; conditions: 1.25 mM substrate, pH 7.5; ND = No Activity Detected
Description: as §1, §2, §3, §4, §5

[6] = test system: Acidovorax sp. CHX chnB monooxygenase; test: as above; type: biochemical; conditions: 1.25 mM substrate, pH 7.5; ND = No Activity Detected
Description: as §1, §2, §3, §4, §5

[7] = biological target: T1, Acinetobacter sp. SE19 chnB monooxygenase (Acinetobacter sp., UniProt Q9F7E4); test: as above; type: biochemical; conditions: 1.25 mM substrate, pH 7.5; ND = No Activity Detected
T1 construct: isolated full length BVMO genes from Brevibacterium sp; HCU, Acinetobacter SE19; C-terminal tail provided by the pTrcHis-TOPO vector (C); made in house; host or cells: E. coli
Description: as §1, §2, §3, §4, §5

[8] = Conversion of cyclohexanone to caprolactone by E. coli clones expressing Rhodococcus erythropolis AN12 monooxygenases, GC-MS detection; type: cell-based, Escherichia coli; conditions: 500 mg/L cyclohexanone, 0.1 mM IPTG, overnight at 24° C., GC-MS of ethylacetate extract
Protocol: Following amplification, the gene fragments were cloned into pTrcHis-TOPO TA vectors with either an N-terminal tail or C-terminal tail, as provided by the vector sequence. These vectors were transformed into E. coli, with transformants grown in Luria-Bertani broth supplemented with ampicillin (100 ug/ml).
The chnB monooxygenase activity of each expressed enzyme from Example 9 was tested for activity according to its ability to convert cyclohexanone to caprolactone.
Clones containing the full length monooxygenase genes were transferred from LB agar plate to 5 mL of M63 minimal media (GIBCO) containing 10 mM glycerol, 50 ug/mL ampicillin, 0.1 mM IPTG, and 500 mg/L cyclohexanone. In addition to the clones containing full length monooxygenases, a plasmid without an insert and a “no cell” control were also assayed. The encoded monooxygenase sequences were expressed upon addition of IPTG to the culture media. The cultures were incubated overnight at room temperature (24° C.). Samples (1.25 mL) for analysis were taken immediately after inoculation and after overnight incubation; cells were removed by centrifugation (4° C., 13,000 rpm).
Caprolactone formed by the action of the cloned monooxygenase was extracted from the aqueous phase with ethylacetate (1.0 ml aqueous/0.5 mL ethylacetate). Caprolactone was detected by gas chromotagraphy mass spectrometry (GC-MS) analysis, using an Agilent 6890 Gas chromatograph system.
The analysis of the ethylacetate phase was performed by injecting 1 uL of the ethyl acetate phase into the GC. The inlet temperature was 115° C. and the column temperature profile was 50° C. for 4 min and ramped to 250° C. at 20° C./min, for a total run time of 14 min. The compounds were separated with an Hewlet Packard HP-5MS (5% phenyl Methyl Siloxane) column (30 m length, 250 um diameter, and 0.25 um film thickness). The mass spectrometer was run in Electron Ionization mode. The background mass spectra was subtracted from the spectra at the retention time of caprolactone (9.857 min). Presence of caprolactone was confirmed by comparison of the test reactions to an authentic standard obtained from Aldrich Chemical Company (St. Louis, Mo.).
Results of these assays are shown below in Table 7, in terms of the presence or absence of detectable caprolactone formation according to the activity of each expressed BV monooxygenase enzyme.

Row | Molecule | Specific Activity of Monooxygenase Enzymes Against Various Ketone Substrates, sp. phi1 chnB [1] [µmol/min/mg] | Specific Activity of Monooxygenase Enzymes Against Various Ketone Substrates, sp. HCU chnB2 [2] [µmol/min/mg] | Specific Activity of Monooxygenase Enzymes Against Various Ketone Substrates, sp. BP2 chnB [3] [µmol/min/mg] | Specific Activity of Monooxygenase Enzymes Against Various Ketone Substrates, sp. HCU chnB1 [4] [µmol/min/mg] | Specific Activity of Monooxygenase Enzymes Against Various Ketone Substrates, sp. phi2 chnB [5] [µmol/min/mg] | Specific Activity of Monooxygenase Enzymes Against Various Ketone Substrates, sp. CHX chnB [6] [µmol/min/mg] | Specific Activity of Monooxygenase Enzymes Against Various Ketone Substrates, sp. SE19 chnB [7] [µmol/min/mg] | Formation of Caprolactone (ability to convert cyclohexanone to caprolactone) [8]
1 | CC1CCCC1=O (stereo not drawn) [2-methyl-cyclopentanone] | 3.392 | 0.874 | 3.514 | 1.395 | 6.445 | 0.627 | 8.378 | –
2 | O=C1CCCCCC1 [Cycloheptanone] | 3.622 | 0.374 | 3.846 | 0.646 | 6.234 | 0.608 | 8.422 | –
3 | O=C1C=CCCC1 [Cyclohex-2-ene-1-one] | 2.694 | 0.541 | 2.739 | 0.435 | 3.091 | 0.666 | 5.357 | –
4 | O=C1CCCCC1 [Cyclohexanone] | 3.680 | 1.726 | 3.565 | 2.765 | 3.750 | 0.397 | 6.349 | –
5 | O=C1CC2CC[C@H]1C2 [Norcamphor] | 1.504 | 1.331 | 2.842 | 0.410 | 2.816 | 0.166 | 4.474 | –
6 | O=C1Cc2ccccc2N1 [Oxindole] | 3.411 | 0.229 | 4.845 | 2.438 | 4.858 | 0.307 | 7.091 | –
7 | CC(=O)/C=C/C1=C(C)CCCC1(C)C [beta-ionone] | 2.707 | 0.374 | 1.485 | 0.109 | 0.544 | 0.544 | 3.347 | –
8 | dimethy-2-piperidone | 3.539 | 0.354 | 4.154 | 2.822 | 6.509 | 0.557 | 8.384 | –
9 | B1 | – | – | – | – | – | – | – | Detected
